Columns and labels:
[1] = target: T1, Dye-decolorizing peroxidase ScDyPB (Streptomyces coelicolor, UniProt Q9FBY9); assay: dye oxidation rate at […] nm, […] dye, […] H2O2; format: biochemical
T1 construct: gene SCO7193
T1 sequence (Q9FBY9 1-316): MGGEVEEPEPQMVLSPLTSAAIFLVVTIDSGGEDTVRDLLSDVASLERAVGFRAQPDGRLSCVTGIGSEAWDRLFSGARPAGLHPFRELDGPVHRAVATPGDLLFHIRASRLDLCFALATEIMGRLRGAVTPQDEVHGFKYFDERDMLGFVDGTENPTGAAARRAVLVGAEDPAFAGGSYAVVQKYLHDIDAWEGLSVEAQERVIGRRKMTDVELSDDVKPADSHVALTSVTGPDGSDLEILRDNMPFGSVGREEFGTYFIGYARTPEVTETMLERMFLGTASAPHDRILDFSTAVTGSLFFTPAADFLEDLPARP

[2] = target: T1, Dye-decolorizing peroxidase ScDyPB; assay: biochemical
[3] = target: T1, Dye-decolorizing peroxidase ScDyPB; assay: initial rates of MHQ oxidation to methylquinone at […] nm, purified enzyme; format: biochemical
[4] = target: T1, Dye-decolorizing peroxidase ScDyPB; assay: dye oxidation rate at […] nm, […] dye, […] H2O2; format: biochemical; remark: listed apart in the source
[5] = target: the molecule itself; assay: SEC; Superdex 75 Increase 10/300 GL, 20 mM Tris-HCl, 0.1 M NaCl, pH 7.5; 100 uL of 18.1 uM ScDyPB injected; calibrated with standard proteins; apparent molecular weights
[6] = substrate: OO; assay: purified protein; conditions: heme heme in its resting state

Molecule: Nc1c(S(=O)(=O)O)cc(Nc2cccc(S(=O)(=O)CCOS(=O)(=O)O)c2)c2c1C(=O)c1ccccc1C2=O [RB19, reactive blue 19]
- dye oxidation rate at 595 nm, 0.1 mM dye, 1.0 mM H2O2 [1]: 0.58 ± 0.02 s^–1

Molecule: CCn1c(=NN=c2sc3cc(S(=O)(=O)O)ccc3n2CC)sc2cc(S(=O)(=O)O)ccc21 [ABTS, 2,2′-azino-di(3-ethyl-benzothiazoline-6-sulfonic acid)]
- Ki [2]: 4.12 ± 0.36 µM

Molecule: Cc1cc(O)ccc1O [MHQ, methylhydroquinone]
- initial rates of MHQ oxidation to methylquinone at 251 nm, purified enzyme [3]: the rate of the oxidation of both ABTS and MHQ scaled linearly with the concentration of the ScDyPB in the cuvette

Molecule: Nc1c(S(=O)(=O)O)cc(Nc2ccc(S(=O)(=O)O)c(Nc3nc(Cl)nc(Cl)n3)c2)c2c1C(=O)c1ccccc1C2=O [RB4, reactive blue 4]
- dye oxidation rate at 610 nm, 0.1 mM dye, 1.0 mM H2O2 [4]: 0.66 ± 0.04 s^–1

B1: Dye-decolorizing peroxidase from S. coelicolor A3(2) (ScDyPB) (enzyme, Streptomyces coelicolor A3(2))
chain: T1 sequence (Q9FBY9 1-316)
notes: Dye-decolorizing peroxidase ScDyPB, Streptomyces coelicolor A3(2), UniProtKB Q9FBY9; molecular weight printed as 34 kDa; Heme protein, reconstituted with hemin; also called type B dye-decolorizing peroxidase of Streptomyces coelicolor; subfamily B DyP; source: E. coli BL21 (DE3), purified, reconstituted with hemin
- stoichiometry N [5]: 3
- Km [6]: 890 ± 60 µM

Reference: article PMC10809370, “Dye-Decolorizing Peroxidase of Streptomyces coelicolor (ScDyPB) Exists as a Dynamic Mixture of Kinetically Different Oligomers” (ACS Omega, 2024)
